Data published in PubChem BioAssay (NCI).
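Results reflect a 48-hour exposure of cells in 96-well plates to compound at five concentrations. At the TGI there is no net growth.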

Legend:
Assay in all cases: DTP human tumour cell line panel, 48 h
[1] = test system: NCI-H522 lung
[2] = test system: SW-620 colon
[3] = test system: MALME-3M melanoma
[4] = test system: SF-539 CNS
[5] = test system: ACHN renal
[6] = test system: NCI-H23 lung
[7] = test system: SK-OV-3 ovarian
[8] = test system: HOP-62 NSCLC
[9] = test system: A498 renal
[10] = test system: K-562 leukemia
[11] = test system: RPMI-8226 leukemia
[12] = test system: U251 CNS
[13] = test system: EKVX NSCLC
[14] = test system: NCI/ADR-RES ovarian
[15] = test system: HOP-92 NSCLC
[16] = test system: HCC-2998 colon
[17] = test system: NCI-H460 lung
[18] = test system: CCRF-CEM leukemia
[19] = test system: SK-MEL-2 melanoma
[20] = test system: HS 578T breast
[21] = test system: 786-0 renal
[22] = test system: PC-3 prostate
[23] = test system: OVCAR-5 ovarian
[24] = test system: SNB-19 CNS
[25] = test system: OVCAR-3 ovarian
[26] = test system: SN12C renal
[27] = test system: UACC-257 melanoma
[28] = test system: SF-268 CNS
[29] = test system: OVCAR-4 ovarian
[30] = test system: HL-60(TB) leukemia
[31] = test system: A549 NSCLC
[32] = test system: MCF7 breast
[33] = test system: HT29 colon
[34] = test system: CAKI-1 renal
[35] = test system: SF-295 CNS
[36] = test system: KM12 colon
[37] = test system: TK-10 renal
[38] = test system: M14 melanoma
[39] = test system: HCT-15 colon
[40] = test system: SNB-75 CNS
[41] = test system: HCT-116 colon
[42] = test system: SR leukemia
[43] = test system: OVCAR-8 ovarian
[44] = test system: MDA-MB-435
[45] = test system: UO-31 renal
[46] = test system: MDA-N
[47] = test system: MOLT-4 leukemia
[48] = test system: NCI-H226 lung
[49] = test system: T-47D breast
[50] = test system: COLO 205 colon
[51] = test system: SK-MEL-5 melanoma
[52] = test system: BT-549 breast
[53] = test system: RXF 393 renal
[54] = test system: MDA-MB-231 breast
[55] = test system: IGROV1 ovarian
[56] = test system: DU-145 prostate
[57] = test system: SK-MEL-28 melanoma
[58] = test system: LOX IMVI melanoma
[59] = test system: UACC-62 melanoma

Q: What does the source list for `COc1ccc(O)c(/C=N/NC(=S)N2CCCCC2)c1`?
A: TGI [1]: > 62.7 µM; TGI [2]: > 100 µM; TGI [3]: 37.3 µM; TGI [4]: > 100 µM; TGI [5]: 23.3 µM; TGI [6]: 20.4 µM; TGI [7]: > 100 µM; TGI [8]: > 20.1 µM; TGI [9]: > 41.5 µM; TGI [10]: > 21.8 µM; TGI [11]: > 27.2 µM; TGI [12]: > 100 µM; TGI [13]: > 65.3 µM; TGI [14]: > 23.2 µM; TGI [15]: 50.8 µM; TGI [16]: 19.6 µM; TGI [17]: > 30.1 µM; TGI [18]: > 47.8 µM; TGI [19]: > 100 µM; TGI [20]: > 100 µM; TGI [21]: > 78.2 µM; TGI [22]: > 100 µM; TGI [23]: > 100 µM; TGI [24]: > 94.9 µM; TGI [25]: > 13.4 µM; TGI [26]: > 100 µM; TGI [27]: > 100 µM; TGI [28]: 62.9 µM; TGI [29]: > 100 µM; TGI [30]: > 23.1 µM; TGI [31]: > 100 µM; TGI [32]: > 100 µM; TGI [33]: > 92.3 µM; TGI [34]: > 84.1 µM; TGI [35]: > 100 µM; TGI [36]: > 100 µM; TGI [37]: > 100 µM; TGI [38]: 10.9 µM; TGI [39]: > 100 µM; TGI [40]: > 100 µM; TGI [41]: > 100 µM; TGI [42]: > 24.5 µM; TGI [43]: > 43.1 µM; TGI [44]: > 100 µM; TGI [45]: 6.22 µM; TGI [46]: > 100 µM; TGI [47]: > 100 µM; TGI [48]: 7.96 µM; TGI [49]: > 89.5 µM; TGI [50]: > 100 µM; TGI [51]: 30.9 µM; TGI [52]: > 94.8 µM; TGI [53]: > 100 µM; TGI [54]: > 100 µM; TGI [55]: > 67.4 µM; TGI [56]: > 43.1 µM; TGI [57]: > 83.4 µM; TGI [58]: > 46 µM; TGI [59]: 23.8 µM

Q: What does the source list for `O=C(/C=C/NC(=O)OCc1ccccc1)OCc1ccccc1`?
A: TGI [1]: > 100 µM; TGI [2]: > 100 µM; TGI [3]: > 100 µM; TGI [4]: > 100 µM; TGI [5]: > 100 µM; TGI [6]: > 100 µM; TGI [7]: > 100 µM; TGI [8]: > 100 µM; TGI [9]: > 100 µM; TGI [10]: > 100 µM; TGI [11]: > 100 µM; TGI [12]: > 100 µM; TGI [13]: > 100 µM; TGI [14]: > 100 µM; TGI [15]: > 100 µM; TGI [16]: > 100 µM; TGI [17]: > 100 µM; TGI [18]: > 100 µM; TGI [19]: > 100 µM; TGI [20]: > 100 µM; TGI [21]: > 100 µM; TGI [22]: > 100 µM; TGI [23]: > 100 µM; TGI [24]: > 100 µM; TGI [25]: > 100 µM; TGI [26]: > 100 µM; TGI [27]: > 100 µM; TGI [28]: > 100 µM; TGI [29]: > 100 µM; TGI [30]: > 100 µM; TGI [31]: > 100 µM; TGI [32]: > 100 µM; TGI [33]: > 100 µM; TGI [34]: > 100 µM; TGI [35]: > 100 µM; TGI [36]: > 100 µM; TGI [37]: > 100 µM; TGI [38]: > 100 µM; TGI [39]: > 100 µM; TGI [40]: > 100 µM; TGI [41]: > 100 µM; TGI [42]: > 100 µM; TGI [43]: > 100 µM; TGI [44]: > 100 µM; TGI [45]: > 100 µM; TGI [46]: > 100 µM; TGI [47]: > 100 µM; TGI [48]: > 100 µM; TGI [49]: > 100 µM; TGI [50]: > 100 µM; TGI [51]: > 100 µM; TGI [52]: > 100 µM; TGI [53]: > 100 µM; TGI [54]: > 100 µM; TGI [55]: > 100 µM; TGI [56]: > 100 µM; TGI [57]: > 100 µM; TGI [58]: > 100 µM; TGI [59]: > 100 µM
